Assay [1] deals with GSK3β (Homo sapiens, UniProt P49841). The assay is described as follows: In vitro kinase TR-FRET assay GSK3β. The assay is classed as biochemical. The following applies: enzyme 0.6 nM, ATP 7.6 μM. The method, then:
(§1) In vitro kinase TR-FRET assays: CDK2/CycA2, CDK2/CycE1, CDK1/cyclinB and GSK3β
(§2) The test compounds were prepared as 10 mM stock solution in 100% DMSO. The stock solution was then serially diluted 3-fold in 100% DMSO to 10 concentrations. 200 nL of each diluted compound solution was transferred to 384-well plate in duplicate. To each well, 5 uL of enzyme and ATP mixture solution containing enzyme CDK2/CycA2, CDK2/CycE1, CDK1/cyclinB, or GSK30 (final concentrations 3 nM, 0.6 nM, 0.3 nM, 0.6 nM, respectively) and ATP (final concentrations 27 μM, 82 μM, 56 μM, 7.6 μM, respectively) in the assay buffer (50 mM HEPES, pH7.5, 10 mM MgCl2, 1 mM DTT, 0.01% BSA, 0.01% Triton X-100). For negative control, 5 uL of assay buffer was added instead. The plate was incubated at room temperature for 10 min. 5 uL of peptide solution containing ULight-4E-BP1 peptide (final concentrations 50 nM) in the assay buffer was subsequently added into each well to initiate the reaction. By incubation at room temperature for 1 hour, 10 uL of 2 nM Eu-anti-phospho-4E BP1 antibody was then added for detection. After one hour incubation at room temperature, all samples were subjected to read the TR-FRET signal on Envision with excitation at 340 nm and emission fluorescence at 615 nm and 665 nm. IC50 values were then calculated by plotting dose-response curves and then using the XLfit application in Excel software.
In general terms: TR-FRET usually uses a lanthanide donor and a delayed reading to cut background.

The target in assay [2] is CDK2/CycA2 (Homo sapiens, UniProt P24941). The experiment in a line: In vitro kinase TR-FRET assay CDK2/CycA2. It is filed as biochemical. The following applies: enzyme 3 nM, ATP 27 μM, read-out: CDK2 cyclinA2 activity assay: IC50. The protocol: as §1, §2
Assay [3] relates to TOV21G. The experiment in a line: Cell proliferation (CyQUANT) TOV21G. It is filed as cell-based. The following applies: 7 days, read-out: Anti-proliferation assay: IC50 (nM) [Cell Line: TOV21G]. The method, then:
(§3) Cancer cell lines, namely, OVCAR3, TOV21G were seeded onto 96 well cell culture plates at a density of 2500, 1000 or 3000 cells/well, respectively and cultured overnight. Cells treated with test compounds at 3-fold dose titration for 7 days at maximum final DMSO concentration of 0.01%. The CyQUANT® Cell Proliferation Assay, a highly sensitive fluorescence-based method for quantifying cells and assessing cell proliferation and cytotoxicity was employed, following manufacturer's procedure (ThermnoFisher, Cataloge #C35012). Plates were scanned with a laser-based Acumen Cellistra instrument by TTP LabTech at Ex/Em 480/520 nm. % Inhibition is calculated based on DMSO control wells on the same plate (ie, DMSO wells have 100% growth and 0% growth inhibition).

For assay [4], the system named is OVCAR3. The assay is described as follows: Cell proliferation (CyQUANT) OVCAR3. The following applies: OVCAR3, 7 days, read-out: Anti-proliferation assay: IC50 (nM) [Cell Line: OVCAR3]. The assay is classed as cell-based. The protocol:
as §3

In assay [5] the target is CDK1/cyclinB (Homo sapiens, UniProt P06493). The assay is described as follows: In vitro kinase TR-FRET assay CDK1/cyclinB. The assay is classed as biochemical. The following applies: enzyme 0.3 nM, ATP 56 μM. The protocol: as §1, §2
Sequence of CDK1/cyclinB (P06493 whole entry): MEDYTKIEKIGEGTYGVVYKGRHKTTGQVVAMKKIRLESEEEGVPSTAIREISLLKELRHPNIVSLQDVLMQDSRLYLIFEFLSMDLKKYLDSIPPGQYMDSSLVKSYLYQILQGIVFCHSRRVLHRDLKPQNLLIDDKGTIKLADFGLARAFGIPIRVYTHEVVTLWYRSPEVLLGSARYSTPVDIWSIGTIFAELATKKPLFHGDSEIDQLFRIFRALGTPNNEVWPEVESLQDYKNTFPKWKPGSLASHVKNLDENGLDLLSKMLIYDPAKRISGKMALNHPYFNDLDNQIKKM
Sequence of CDK1/cyclinB (P14635 whole entry partner): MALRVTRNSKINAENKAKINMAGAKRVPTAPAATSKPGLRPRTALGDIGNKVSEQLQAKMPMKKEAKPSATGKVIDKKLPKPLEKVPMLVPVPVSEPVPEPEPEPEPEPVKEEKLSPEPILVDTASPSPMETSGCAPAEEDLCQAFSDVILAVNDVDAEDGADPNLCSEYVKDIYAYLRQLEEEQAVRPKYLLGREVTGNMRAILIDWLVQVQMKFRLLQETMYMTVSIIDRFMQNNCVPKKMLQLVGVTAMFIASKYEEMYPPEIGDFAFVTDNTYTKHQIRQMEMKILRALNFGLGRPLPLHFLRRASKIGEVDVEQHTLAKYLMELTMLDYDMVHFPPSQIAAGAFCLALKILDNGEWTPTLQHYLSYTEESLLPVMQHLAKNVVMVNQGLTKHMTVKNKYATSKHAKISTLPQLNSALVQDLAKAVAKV
Assay [6] concerns the target CDK2/CycE1 (Homo sapiens, UniProt P24941). The experiment in a line: In vitro kinase TR-FRET assay CDK2/CycE1. The assay is classed as biochemical. The following applies: enzyme 0.6 nM, ATP 82 μM, read-out: CDK2 cyclinE1 activity assay: IC50. The protocol:
as §1, §2

SMILES strings stand for the structures. Like-named read-outs stand apart in the source and are kept apart here.

Sequence of GSK3β (P49841 whole entry, species assumed): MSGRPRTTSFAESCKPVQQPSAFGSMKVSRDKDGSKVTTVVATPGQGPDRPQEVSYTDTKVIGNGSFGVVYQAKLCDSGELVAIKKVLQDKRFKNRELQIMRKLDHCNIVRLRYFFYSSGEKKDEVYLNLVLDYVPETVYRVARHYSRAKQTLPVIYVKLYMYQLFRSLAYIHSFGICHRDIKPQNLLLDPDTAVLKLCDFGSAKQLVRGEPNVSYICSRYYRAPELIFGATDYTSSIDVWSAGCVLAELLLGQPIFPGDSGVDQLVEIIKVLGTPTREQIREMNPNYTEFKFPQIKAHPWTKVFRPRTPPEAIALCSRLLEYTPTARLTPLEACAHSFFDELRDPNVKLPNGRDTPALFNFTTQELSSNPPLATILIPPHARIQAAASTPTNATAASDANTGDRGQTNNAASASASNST

Turning to `CC(C)NC(=O)O[C@@H]1CC[C@H](c2cc(Nc3ccc4c(c3)N(C)CNS4(=O)=O)n[nH]2)C1` [Example 12, (1R,3S)-3-{3-[(4-methyl-1,1-dioxo-3,4-dihydro-2H-1λ^6,2,4-benzothiadiazin-6-yl)amino]-1H-pyrazol-5-yl}cyclopentyl N-(propan-2-yl)carbamate], the IC50 in assay [1] was 50 to 500 nM; in assay [2] it was below 50 nM; in assay [3], at least 1000 nM; in assay [4], at most 500 nM; in assay [5], below 50 nM; in assay [6], below 50 nM.
Regarding `CC(C)NC(=O)OC1CCC(c2cc(Nc3ccc4c(c3)CN(C)S4(=O)=O)[nH]n2)C1` (racemic) [Example 23, 3-(5-((2-methyl-1,1-dioxido-2,3-dihydrobenzo[d]isothiazol-5-yl)amino)-1H-pyrazol-3-yl)cyclopentyl isopropylcarbamate], the IC50 in assay [1] is 50 to 500 nM; in assay [2], below 50 nM; in assay [3] (Homo sapiens, 168 h), at least 1000 nM; in assay [4] (Homo sapiens, OVCAR-3, 168 h), at most 500 nM; in assay [5] it was 50 to 500 nM; in assay [6], below 50 nM.
In the case of `CC(C)NC(=O)O[C@@H]1CC[C@H](c2cc(Nc3nccc4c3CCS4(=O)=O)n[nH]2)C1` [Example 57, (1R,3S)-3-{5-[(1,1-dioxo-2,3-dihydro-1λ^6-thieno[3,2-c]pyridin-4-yl)amino]-2H-pyrazol-3-yl}cyclopentyl (prop-2-ylamino)methanoate], the IC50 is 50 to 500 nM in assay [1]; below 50 nM in assay [2]; 500 to 1000 nM in assay [3] (Homo sapiens, 168 h); at most 500 nM in assay [4] (Homo sapiens, OVCAR-3, 168 h); 50 to 500 nM in assay [5]; below 50 nM in assay [6].
As for `CC(C)NC(=O)O[C@@H]1CC[C@H](c2cc(Nc3ccc4c(c3)C(=O)NC4=O)n[nH]2)C1` [Example 4, (1R,3S)-3-(3-((1,3-dioxoisoindolin-5-yl)amino)-1H-pyrazol-5-yl)cyclopentyl isopropylcarbamate], the IC50 is 50 to 500 nM in assay [1]; below 50 nM in assay [2]; at least 1000 nM in assay [3] (Homo sapiens, 168 h); 500 to 1000 nM in assay [4] (Homo sapiens, OVCAR-3, 168 h); 50 to 500 nM in assay [5]; below 50 nM in assay [6].
Turning to `CC(C)NC(=O)O[C@@H]1CC[C@H](c2cc(Nc3cccc4c3CCNS4(=O)=O)n[nH]2)C1` [Example 61, (1R,3S)-3-(3-((1,1-dioxido-3,4-dihydro-2H-benzo[e][1,2]thiazin-5-yl)amino)-1H-pyrazol-5-yl)cyclopentyl isopropylcarbamate], the IC50 was 500 to 1000 nM in assay [1]; below 50 nM in assay [2]; at most 500 nM in assay [3] (Homo sapiens, 168 h); at most 500 nM in assay [4] (Homo sapiens, OVCAR-3, 168 h); below 50 nM in assay [5]; below 50 nM in assay [6].
In the case of `CC(C)NC(=O)O[C@H]1CC[C@@H](c2cc(Nc3ccc4c(c3)CCNS4(=O)=O)n[nH]2)CC1` [Example 11, (1s,4s)-4-{3-[(1,1-dioxo-3,4-dihydro-2H-1λ^6,2-benzothiazin-6-yl)amino]-1H-pyrazol-5-yl}cyclohexyl N-(propan-2-yl)carbamate], the IC50 in assay [1] is above 1000 nM; in assay [2], below 50 nM; in assay [3] (Homo sapiens, 168 h) it was at least 1000 nM; in assay [4] (Homo sapiens, OVCAR-3, 168 h), at most 500 nM; in assay [5] it was below 50 nM; in assay [6] it was below 50 nM.
In the case of `CC(C)NC(=O)O[C@@H]1CC[C@H](c2cc(Nc3ccc4c(c3)oc(=O)n4C)n[nH]2)C1` [Example 34, (1R,3S)-3-{5-[(3-methyl-2-oxobenzo[d][1,3]oxazol-6-yl)amino]-2H-pyrazol-3-yl}cyclopentyl (prop-2-ylamino)methanoate], the IC50 in assay [1] was 500 to 1000 nM; in assay [2], below 50 nM; in assay [3] (Homo sapiens, 168 h), at least 1000 nM; in assay [4] (Homo sapiens, OVCAR-3, 168 h), 500 to 1000 nM; in assay [5], 50 to 500 nM; in assay [6], below 50 nM.
Consider `CC(C)NC(=O)O[C@@H]1CC[C@H](c2cc(Nc3ccc(F)c4c3CCS4(=O)=O)n[nH]2)C1` [Example 50, (1R,3S)-3-{5-[(7-fluoro-1,1-dioxo-2,3-dihydro-1λ^6-benzothiophen-4-yl)amino]-2H-pyrazol-3-yl}cyclopentyl (prop-2-ylamino)methanoate], for which the IC50 in assay [1] was 50 to 500 nM; in assay [2], below 50 nM; in assay [3] (Homo sapiens, 168 h) it was at most 500 nM; in assay [4] (Homo sapiens, OVCAR-3, 168 h) it was at most 500 nM; in assay [5] it was 50 to 500 nM; in assay [6], below 50 nM.
For the compound `CC(C)NC(=O)O[C@@H]1CC[C@H](c2cc(Nc3cccc4c3CS(=O)(=O)C4)n[nH]2)C1` [Example 40, (1R,3S)-3-{5-[(2,2-dioxo-1,3-dihydro-2λ^6-benzo[c]thiophen-4-yl)amino]-2H-pyrazol-3-yl}cyclopentyl (prop-2-ylamino)methanoate], the IC50 in assay [1] was above 1000 nM; in assay [2], below 50 nM; in assay [3] (Homo sapiens, 168 h) it was at least 1000 nM; in assay [4] (Homo sapiens, OVCAR-3, 168 h), at most 500 nM; in assay [5], 50 to 500 nM; in assay [6] it was below 50 nM.
On to `CC(C)NC(=O)O[C@H]1CC[C@@H](c2cc(Nc3ccc4c(c3)CNS4(=O)=O)n[nH]2)CC1` [Example 7, (1s,4s)-4-{3-[(1,1-dioxo-2,3-dihydro-1λ^6,2-benzothiazol-5-yl)amino]-1H-pyrazol-5-yl}cyclohexyl N-(propan-2-yl)carbamate], for which the IC50 in assay [1] is above 1000 nM; in assay [2], below 50 nM; in assay [3], at least 1000 nM; in assay [4], at most 500 nM; in assay [5], 50 to 500 nM; in assay [6], below 50 nM.
Turning to `CC(C)NC(=O)O[C@@H]1CC[C@H](c2cc(Nc3ccc4c(c3)CNC4=O)n[nH]2)C1` [Example 8, (1R,3S)-3-(3-((1-oxoisoindolin-5-yl)amino)-1H-pyrazol-5-yl)cyclopentyl isopropylcarbamate], the IC50 was 500 to 1000 nM in assay [1]; below 50 nM in assay [2]; at least 1000 nM in assay [3] (Homo sapiens, 168 h); at least 1000 nM in assay [4] (Homo sapiens, OVCAR-3, 168 h); 500 to 1000 nM in assay [5]; below 50 nM in assay [6].
In the case of `CC(C)NC(=O)O[C@@H]1CC[C@H](c2cc(Nc3cccc4c3CCN(C)S4(=O)=O)[nH]n2)C1` [Example 56, (1R,3S)-3-{5-[(2-methyl-1,1-dioxo-3,4-dihydro-2H-1λ6-benzo[2,1-e][1,2]thiazin-5-yl)amino]-1H-pyrazol-3-yl}cyclopentyl (prop-2-ylamino)methanoate], the IC50 is 50 to 500 nM in assay [1]; below 50 nM in assay [2]; at least 1000 nM in assay [3] (Homo sapiens, 168 h); at most 500 nM in assay [4] (Homo sapiens, OVCAR-3, 168 h); 50 to 500 nM in assay [5]; below 50 nM in assay [6].
With `CC(C)NC(=O)O[C@H]1C[C@@H](c2cc(Nc3nccc4c3CCS4(=O)=O)n[nH]2)C1` [Example 70, (1s,3s)-3-(3-((1,1-dioxido-2,3-dihydrothieno[3,2-c]pyridin-4-yl)amino)-1H-pyrazol-5-yl)cyclobutyl isopropylcarbamate], the IC50 in assay [1] was below 50 nM; in assay [2], below 50 nM; in assay [3] (Homo sapiens, 168 h) it was at most 500 nM; in assay [4] (Homo sapiens, OVCAR-3, 168 h), at most 500 nM; in assay [5], below 50 nM; in assay [6], below 50 nM.
As to `CC(C)NC(=O)O[C@@H]1CC[C@H](c2cc(Nc3cccc4c3CCCS4(=O)=O)n[nH]2)C1` [Example 59, (1R,3S)-3-(3-((1,1-dioxidothiochroman-5-yl)amino)-1H-pyrazol-5-yl)cyclopentyl isopropylcarbamate], the IC50 in assay [1] was 500 to 1000 nM; in assay [2], below 50 nM; in assay [3] (Homo sapiens, 168 h) it was 500 to 1000 nM; in assay [4] (Homo sapiens, OVCAR-3, 168 h), at most 500 nM; in assay [5], 50 to 500 nM; in assay [6], below 50 nM.

The values above are taken from US20240246950A1, “Anilino-Pyrazole Derivatives, Compositions and Methods Thereof” (Ensem Therapeutics, priority 2022, published 2024).
